One experiment addresses T1, mTOR kinase (Homo sapiens, UniProt P42345).
T1 construct: purchased Millipore, USA
As to the kind of experiment: mTOR kinase TR-FRET assay. The format is biochemical. The settings on record: read-out: mTO R. A digest of the protocol:
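TR-FRET read-out (340 nm excitation, 615/665 nm emission) of Thr389 phosphorylation of a ULight-labeled p70 S6K peptide (50 nM) by mTOR, 20 μM ATP, 60 min room temperature after 60 min compound preincubation. Buffer HEPES pH 7.5 with MnCl2, EGTA; IC50 by sigmoidal dose-response.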

A further experiment has as its system PC3 cells. As to the kind of experiment: XTT assay for cell viability, PC3 cells. Format: cell-based, human. The settings on record: Homo sapiens, PC-3, cell viability. The method, then: Using a commercial kit from Sigma Aldrich (Catalog #X34251) and following its protocol, PC3 cells in the log phase of growth were employed and seeded at an optimal density of 1000 cell/well on to 96 well plates and incubated for 24 h followed by the addition of compounds of formula (I) in serial dilutions. Compound dilutions were made in DMSO. The cells were incubated with the compounds of formula (I) for 96 h and XTT tetrazolium dye (Sigma, USA) was subsequently added and incubated at 37° C. After the color formation, absorbance was measured at 465 nm in a Spectramax® Gemini spectrophotometer. EC50 values were calculated using a sigmoidal dose response curve fit in GraphPad Prism® v5 software. The tested compounds of formula (I) which caused inhibition of PC3 cell proliferation as determined by this assay protocol are shown in Table 2.

Experiment [1] addresses T2, PI3Kα (wild-type), P110/P85α (Homo sapiens, UniProt P42336).
T2 construct: made in house; host or cells: SF9 insect cells
The experiment can be described thus: PI3 Kinase TR-FRET assay, PI3Kα (wild-type). Format: biochemical. A digest of the protocol:
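TR-FRET read-out of PIP3 formation via biotin-PIP3 displacement (665/615 nm ratio) gave IC50 curves. Enzyme: 5 ng wild-type P110/P85α from Sf9 cells, 60 min RT with compound and PIP2 (MgCl2 40 mM, DTT 5 mM), then 30 min RT kinase reaction at 10 μM ATP and 10 μM PIP2.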

Molecules are shown by their SMILES.

T2 sequence (P42336 whole entry): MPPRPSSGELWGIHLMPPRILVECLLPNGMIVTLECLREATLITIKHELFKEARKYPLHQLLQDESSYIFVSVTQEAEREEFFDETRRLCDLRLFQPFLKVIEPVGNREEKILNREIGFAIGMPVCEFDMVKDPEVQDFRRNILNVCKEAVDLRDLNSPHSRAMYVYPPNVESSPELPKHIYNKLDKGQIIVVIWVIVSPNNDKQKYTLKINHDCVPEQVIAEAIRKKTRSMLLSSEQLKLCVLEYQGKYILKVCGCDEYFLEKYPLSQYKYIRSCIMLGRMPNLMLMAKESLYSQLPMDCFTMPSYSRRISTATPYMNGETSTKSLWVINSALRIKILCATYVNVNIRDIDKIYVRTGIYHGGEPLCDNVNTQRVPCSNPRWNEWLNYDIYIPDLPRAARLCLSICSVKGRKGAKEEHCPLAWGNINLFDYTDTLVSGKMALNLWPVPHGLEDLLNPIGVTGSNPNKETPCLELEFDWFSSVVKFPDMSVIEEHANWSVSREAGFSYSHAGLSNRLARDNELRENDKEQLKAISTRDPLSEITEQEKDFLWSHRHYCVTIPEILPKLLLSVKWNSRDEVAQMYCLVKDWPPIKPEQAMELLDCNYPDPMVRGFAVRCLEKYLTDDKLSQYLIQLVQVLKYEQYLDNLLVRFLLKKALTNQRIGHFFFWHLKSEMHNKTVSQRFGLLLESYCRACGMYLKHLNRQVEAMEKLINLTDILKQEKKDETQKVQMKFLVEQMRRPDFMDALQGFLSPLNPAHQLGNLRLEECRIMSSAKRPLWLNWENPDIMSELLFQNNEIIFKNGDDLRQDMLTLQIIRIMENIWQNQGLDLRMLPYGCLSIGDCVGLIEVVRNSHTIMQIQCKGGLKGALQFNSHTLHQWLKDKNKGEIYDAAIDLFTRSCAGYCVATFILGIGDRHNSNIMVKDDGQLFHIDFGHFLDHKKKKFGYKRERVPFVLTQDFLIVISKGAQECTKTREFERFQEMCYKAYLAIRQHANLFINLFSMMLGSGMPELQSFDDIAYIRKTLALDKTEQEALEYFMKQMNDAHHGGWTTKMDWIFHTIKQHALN
T2 sequence (P27986 whole entry partner): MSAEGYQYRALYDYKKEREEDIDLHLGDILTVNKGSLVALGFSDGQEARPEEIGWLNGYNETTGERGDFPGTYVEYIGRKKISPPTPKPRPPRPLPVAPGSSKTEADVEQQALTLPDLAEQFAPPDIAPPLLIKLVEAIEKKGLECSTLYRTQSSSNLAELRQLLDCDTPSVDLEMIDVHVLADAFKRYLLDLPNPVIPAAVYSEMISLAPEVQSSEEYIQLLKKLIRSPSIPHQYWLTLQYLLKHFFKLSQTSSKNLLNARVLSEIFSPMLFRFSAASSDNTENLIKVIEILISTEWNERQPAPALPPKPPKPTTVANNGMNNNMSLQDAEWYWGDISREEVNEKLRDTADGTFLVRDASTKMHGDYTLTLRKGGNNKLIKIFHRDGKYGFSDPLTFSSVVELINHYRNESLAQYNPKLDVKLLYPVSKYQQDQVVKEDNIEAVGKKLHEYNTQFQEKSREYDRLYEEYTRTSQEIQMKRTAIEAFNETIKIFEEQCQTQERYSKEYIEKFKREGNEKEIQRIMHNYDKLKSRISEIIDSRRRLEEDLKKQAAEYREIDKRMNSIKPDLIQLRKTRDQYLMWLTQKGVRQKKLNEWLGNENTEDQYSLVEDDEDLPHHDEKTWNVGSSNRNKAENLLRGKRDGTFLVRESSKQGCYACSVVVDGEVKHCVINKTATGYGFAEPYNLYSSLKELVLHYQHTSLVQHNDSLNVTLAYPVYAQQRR

Turning to `Cc1ccc(-c2ccc3c(N4CCOCC4)nc(-c4ccc(NC(=O)Nc5ccc(C(=O)N6CCC(N(C)C)C6)cc5)cc4)nc3c2)o1` (stereo in doubt) [Example 195, (S)-1-(4-(3-(dimethylamino)pyrrolidine-1-carbonyl)phenyl)-3-(4-(7-(5-methylfuran-2-yl)-4-morpholino-quinazolin-2-yl)phenyl)urea], the IC50 at mTOR kinase is less than 50 nM; with PC3 cells, less than 100 nM; in experiment [1] it was 50 to 200 nM.
For `NC1CCN(C(=O)c2ccc(NC(=O)Nc3ccc(-c4nc(N5CCOCC5)c5ccc(-c6ccco6)cc5n4)cc3)cc2)C1` (stereo in doubt) [Example 234, (S)-1-(4-(3-aminopyrrolidine-1-carbonyl)phenyl)-3-(4-(7-(furan-2-yl)-4-morpholino-quinazolin-2-yl)phenyl)urea], the IC50 is less than 50 nM on mTOR kinase, 201 to 10000 nM in the experiment on PC3 cells and less than 50 nM in experiment [1].
In the case of `CN1CCN(C(=O)c2ccc(NC(=O)Nc3ccc(-c4nc(N5CCOCC5)c5cc(F)c(-c6cccnc6)cc5n4)cc3)cc2)CC1` [Example 4, 1-[4(6-Fluoro-4-morpholin-4-yl-7-pyridin-3-yl-quinazolin-2-yl)-phenyl]-3-[4-(4-methyl-piperazine-1-carbonyl)-phenyl]-urea], the IC50 is less than 50 nM at mTOR kinase, less than 100 nM with PC3 cells and less than 50 nM in experiment [1].
With `COc1ncc(-c2cnc3c(N4CCOCC4)nc(-c4ccc(NC(=O)Nc5ccc(C(=O)N(C)C)cc5)cc4F)nc3c2)cn1` [Example 263, 4-(3-(3-fluoro-4-(7-(2-methoxypyrimidin-5-yl)-4-morpholino-pyrido[3,2-d]pyrimidin-2-yl)phenyl)ureido)-N,N-dimethyl-benzamide], the IC50 (on mTOR kinase; in experiment [1]) was less than 50 nM each time.
As to `CN(C)C(=O)c1ccc(NC(=O)Nc2ccc(-c3nc(N4CCOCC4)c4ncc(-c5cccnc5)cc4n3)cc2)cc1F` [Example 264, 2-fluoro-N,N-dimethyl-4-(3-(4-(4-morpholino-7-(pyridin-3-yl)pyrido[3,2-d]pyrimidin-2-yl)phenyl)ureido)-benzamide], the IC50 (on mTOR kinase; in experiment [1]) was less than 50 nM each time.
Take `Cc1ccc(-c2ccc3c(N4CCOCC4)nc(-c4ccc(NC(=O)Nc5ccc(C(=O)N(C)C)c(F)c5)cc4)nc3c2)o1` [Example 266, 2-fluoro-N,N-dimethyl-4-(3-(4-(7-(5-methylfuran-2-yl)-4-morpholino-quinazolin-2-yl)phenyl)ureido)-benzamide]: the IC50 (on mTOR kinase; in experiment [1]) was 50 to 200 nM each time.
`Cc1nn(C)c(C)c1-c1ccc2c(N3CCOCC3)nc(-c3ccc(NC(=O)Nc4ccc(C(=O)N(C)C)cc4)cc3F)nc2c1` [Example 269, 4-(3-(3-fluoro-4-(4-morpholino-7-(1,3,5-trimethyl-1H-pyrazol-4-yl)quinazolin-2-yl)phenyl)ureido)-N,N-dimethyl-benzamide]: the IC50 (at mTOR kinase; in experiment [1]) was less than 50 nM throughout.
As to `COc1ncccc1-c1ccc2c(N3CCOCC3)nc(-c3ccc(NC(=O)Nc4ccc(C(=O)N(C)C)cc4)cc3F)nc2c1` [Example 270, 4-(3-(3-fluoro-4-(7-(2-methoxypyridin-3-yl)-4-morpholino-quinazolin-2-yl)phenyl)ureido)-N,N-dimethyl-benzamide], the IC50 (on mTOR kinase; in experiment [1]) was 50 to 200 nM throughout.
Consider `Cc1ccc(-c2ccc3c(N4CCOCC4)nc(-c4ccc(NC(=O)Nc5ccc(C(=O)N(C)C)cc5)cc4F)nc3c2)cn1` [Example 271, 4-(3-(3-fluoro-4-(7-(6-methylpyridin-3-yl)-4-morpholino-quinazolin-2-yl)phenyl)ureido)-N,N-dimethyl-benzamide], for which the IC50 (at mTOR kinase; in experiment [1]) was less than 50 nM throughout.
In the case of `Cc1ncccc1-c1ccc2c(N3CCOCC3)nc(-c3ccc(NC(=O)Nc4ccc(C(=O)N(C)C)cc4)cc3F)nc2c1` [Example 272, 4-(3-(3-fluoro-4-(7-(2-methylpyridin-3-yl)-4-morpholino-quinazolin-2-yl)phenyl)ureido)-N,N-dimethyl-benzamide], the IC50 on mTOR kinase was 50 to 200 nM; in experiment [1] it was less than 50 nM.
On to `CN(C)C(=O)c1ccc(NC(=O)Nc2ccc(-c3nc(N4CCOCC4)c4ncc(-c5cnn(C)c5)cc4n3)cc2)cc1F` [Example 273, 2-fluoro-N,N-dimethyl-4-(3-(4-(7-(1-methyl-1H-pyrazol-4-yl)-4-morpholino-pyrido[3,2-d]pyrimidin-2-yl)phenyl)ureido)-benzamide], for which the IC50 (at mTOR kinase; in experiment [1]) was less than 50 nM throughout.
With `CN(C)C(=O)c1ccc(NC(=O)Nc2ccc(-c3nc(N4CCOCC4)c4ccc(-c5ccc(C(C)(C)O)o5)cc4n3)c(F)c2)cc1` [Example 276, 4-(3-(3-fluoro-4-(7-(5-(2-hydroxypropan-2-yl)furan-2-yl)-4-morpholino-quinazolin-2-yl)phenyl)ureido)-N,N-dimethyl-benzamide], the IC50 (at mTOR kinase; in experiment [1]) was 50 to 200 nM each time.
Consider `CN(C)C(=O)c1ccc(NC(=O)Nc2ccc(-c3nc(N4CCOCC4)c4ccc(-c5cnc(N(C)C)nc5)cc4n3)c(F)c2)cc1` [Example 277, 4-(3-(4-(7-(2-(dimethylamino)pyrimidin-5-yl)-4-morpholino-quinazolin-2-yl)-3-fluorophenyl)ureido)-N,N-dimethyl-benzamide], for which the IC50 (on mTOR kinase; in experiment [1]) was less than 50 nM throughout.
As to `CN(C)C(=O)c1ccc(NC(=O)Nc2ccc(-c3nc(N4CCOCC4)c4ccc(-c5ccc(CO)o5)cc4n3)cc2)cc1F` [Example 278, 2-fluoro-4-(3-(4-(7-(5-(hydroxymethyl)furan-2-yl)-4-morpholino-quinazolin-2-yl)phenyl)ureido)-N,N-dimethyl-benzamide], the IC50 (at mTOR kinase; in experiment [1]) was less than 50 nM each time.
Turning to `CN(C)C(=O)c1ccc(NC(=O)Nc2cc(F)c(-c3nc(N4CCOCC4)c4ccc(-c5cncnc5)cc4n3)cc2F)cc1` [Example 279, 4-(3-(2,5-difluoro-4-(4-morpholino-7-(pyrimidin-5-yl)quinazolin-2-yl)phenyl)ureido)-N,N-dimethyl-benzamide], the IC50 (on mTOR kinase; in experiment [1]) was 50 to 200 nM throughout.
Turning to `Cc1ccc(-c2ccc3c(N4CCOCC4)nc(-c4ccc(NC(=O)Nc5ccc(C(=O)N(C)C)cc5)c(F)c4F)nc3c2)o1` [Example 281, 4-(3-(2,3-difluoro-4-(7-(5-methylfuran-2-yl)-4-morpholino-quinazolin-2-yl)phenyl)ureido)-N,N-dimethyl-benzamide], the IC50 (at mTOR kinase; in experiment [1]) was 201 to 10000 nM throughout.
As for `CN(C)C(=O)c1ccc(NC(=O)Nc2ccc(-c3nc(N4CCOCC4)c4ccc(CN5CCC(O)CC5)cc4n3)cc2)cc1` [Example 284, 4-(3-(4-(7-((4-hydroxypiperidin-1-yl)methyl)-4-morpholino-quinazolin-2-yl)phenyl)ureido)-N,N-dimethyl-benzamide], the IC50 was 50 to 200 nM on mTOR kinase and 201 to 10000 nM in experiment [1].
As to `CN(C)C(=O)c1ccc(NC(=O)Nc2ccc(-c3nc(N4CCOCC4)c4ccc(C(=O)N5CCC(N(C)C)CC5)cc4n3)cc2)cc1` [Example 287, 4-(3-(4-(7-(4-(dimethylamino)piperidine-1-carbonyl)-4-morpholino-quinazolin-2-yl)phenyl)ureido)-N,N-dimethyl-benzamide], the IC50 (at mTOR kinase; in experiment [1]) was 201 to 10000 nM each time.
For the compound `CN(C)[C@@H]1CCN(C(=O)c2ccc(NC(=O)Nc3ccc(-c4nc(N5CCOCC5)c5ccc(C(C)(C)O)cc5n4)cc3)cc2)C1` [Example 288, (R)-1-(4-(3-(dimethylamino)pyrrolidine-1-carbonyl)phenyl)-3-(4-(7-(2-hydroxypropan-2-yl)-4-morpholino-quinazolin-2-yl)phenyl)urea], the figures for the IC50 (at mTOR kinase; in experiment [1]) were less than 50 nM and 50 to 200 nM, respectively.
With `CN(C)C(=O)c1ccc(NC(=O)Nc2ccc(-c3nc(N4CCOCC4)c4ccc(C(C)(C)O)cc4n3)cc2F)cc1` [Example 290, 4-(3-(2-fluoro-4-(7-(2-hydroxypropan-2-yl)-4-morpholino-quinazolin-2-yl)phenyl)ureido)-N,N-dimethyl-benzamide], the values for the IC50 (on mTOR kinase; in experiment [1]) were less than 50 nM and 50 to 200 nM, respectively.
As for `CC(=O)Nc1ccc(NC(=O)Nc2ccc(-c3nc(N4CCOCC4)c4ncc(-c5cccnc5F)cc4n3)cc2)cc1` [Example 293, N-(4-(3-(4-(7-(2-fluoropyridin-3-yl)-4-morpholinopyrido[3,2-d]pyrimidin-2-yl)phenyl)ureido)phenyl) acetamide], the IC50 (at mTOR kinase; in experiment [1]) was less than 50 nM in each case.
Consider `CC(=O)Nc1ccc(NC(=O)Nc2ccc(-c3nc(N4CCOCC4)c4ncc(-c5cnn(C)c5)cc4n3)cc2)cc1` [Example 294, N-(4-(3-(4-(7-(1-methyl-1H-pyrazol-4-yl)-4-morpholinopyrido[3,2-d]pyrimidin-2-yl)phenyl)ureido)phenyl) acetamide], for which the IC50 (at mTOR kinase; in experiment [1]) was less than 50 nM each time.

These data come from US9115092B2, “Substituted quinazoline and pyrido-pyrimidine derivatives” (Asana Biosciences, LLC, priority 2010, dated 2015).
